Reference: ChEMBL document CHEMBL1146779, “Bridgehead-methyl analog of SC-53116 as a 5-HT4 agonist” (Bioorg Med Chem Lett, 2004)

Tests used:
[1] = target: T1, 5-hydroxytryptamine receptor 4 (Rattus norvegicus, UniProt Q62758); assay: Compound was tested for agonist activity at the 5-hydroxytryptamine 4 receptor in the rat tunica muscularis mucosae (TMM) assay; IN = Inactive; assay type: functional, tissue-based, Muscularis mucosa
[2] = target: D(2) dopamine receptor (Homo sapiens, UniProt P14416); assay: Compound was evaluated for Dopamine receptor D2 binding
D(2) dopamine receptor, sequence (P14416 whole entry): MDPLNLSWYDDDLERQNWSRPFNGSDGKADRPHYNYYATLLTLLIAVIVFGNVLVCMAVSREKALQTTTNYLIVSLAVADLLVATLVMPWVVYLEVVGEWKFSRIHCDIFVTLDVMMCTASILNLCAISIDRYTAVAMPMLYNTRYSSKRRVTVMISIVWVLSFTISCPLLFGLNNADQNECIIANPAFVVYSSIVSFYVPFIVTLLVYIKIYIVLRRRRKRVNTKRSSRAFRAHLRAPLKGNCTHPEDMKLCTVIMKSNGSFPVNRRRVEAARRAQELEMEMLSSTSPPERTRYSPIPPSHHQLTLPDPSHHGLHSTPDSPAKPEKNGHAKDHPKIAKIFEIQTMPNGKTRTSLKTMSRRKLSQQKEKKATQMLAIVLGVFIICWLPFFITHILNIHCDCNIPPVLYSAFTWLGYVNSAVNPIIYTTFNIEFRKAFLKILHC

[3] = target: D(1A) dopamine receptor (Homo sapiens, UniProt P21728); assay: Compound was evaluated for Dopamine receptor D1 binding
D(1A) dopamine receptor, sequence (P21728 whole entry): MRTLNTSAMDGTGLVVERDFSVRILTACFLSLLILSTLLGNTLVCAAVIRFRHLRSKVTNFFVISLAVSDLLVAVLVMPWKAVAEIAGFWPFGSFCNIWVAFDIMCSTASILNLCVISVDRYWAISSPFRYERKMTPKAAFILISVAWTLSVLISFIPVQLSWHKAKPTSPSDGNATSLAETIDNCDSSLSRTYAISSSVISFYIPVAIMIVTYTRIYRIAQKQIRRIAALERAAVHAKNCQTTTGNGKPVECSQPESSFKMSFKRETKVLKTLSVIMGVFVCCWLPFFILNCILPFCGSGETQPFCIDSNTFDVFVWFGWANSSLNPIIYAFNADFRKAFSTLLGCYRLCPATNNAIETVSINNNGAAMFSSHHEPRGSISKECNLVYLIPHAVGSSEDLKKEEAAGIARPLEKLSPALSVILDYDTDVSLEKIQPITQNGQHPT

[4] = target: T1, 5-hydroxytryptamine receptor 4; assay: Tested for agonist activity at the 5-hydroxytryptamine 4 receptor in the rat tunica muscularis mucosae (TMM) assay of racemate mixture; assay type: functional
[5] = target: T2, Adrenergic receptor alpha-1 (Homo sapiens, UniProt P35348+P25100+P35368); assay: Compound was evaluated for alpha-1 adrenergic receptor binding; assay type: protein assay
T2 sequence (P35348 whole entry): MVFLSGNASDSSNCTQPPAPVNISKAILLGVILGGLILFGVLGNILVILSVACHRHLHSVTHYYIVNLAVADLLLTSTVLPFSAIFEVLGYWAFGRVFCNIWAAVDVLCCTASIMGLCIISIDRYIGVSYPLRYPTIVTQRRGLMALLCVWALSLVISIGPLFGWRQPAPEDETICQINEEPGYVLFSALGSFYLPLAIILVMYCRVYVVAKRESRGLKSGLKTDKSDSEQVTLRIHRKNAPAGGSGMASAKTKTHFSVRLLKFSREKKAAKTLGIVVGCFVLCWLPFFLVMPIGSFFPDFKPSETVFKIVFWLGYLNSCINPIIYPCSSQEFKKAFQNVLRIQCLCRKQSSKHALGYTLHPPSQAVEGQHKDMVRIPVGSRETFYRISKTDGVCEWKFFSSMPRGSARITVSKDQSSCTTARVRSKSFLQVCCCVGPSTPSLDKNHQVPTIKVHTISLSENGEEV
T2 sequence (P25100 whole entry): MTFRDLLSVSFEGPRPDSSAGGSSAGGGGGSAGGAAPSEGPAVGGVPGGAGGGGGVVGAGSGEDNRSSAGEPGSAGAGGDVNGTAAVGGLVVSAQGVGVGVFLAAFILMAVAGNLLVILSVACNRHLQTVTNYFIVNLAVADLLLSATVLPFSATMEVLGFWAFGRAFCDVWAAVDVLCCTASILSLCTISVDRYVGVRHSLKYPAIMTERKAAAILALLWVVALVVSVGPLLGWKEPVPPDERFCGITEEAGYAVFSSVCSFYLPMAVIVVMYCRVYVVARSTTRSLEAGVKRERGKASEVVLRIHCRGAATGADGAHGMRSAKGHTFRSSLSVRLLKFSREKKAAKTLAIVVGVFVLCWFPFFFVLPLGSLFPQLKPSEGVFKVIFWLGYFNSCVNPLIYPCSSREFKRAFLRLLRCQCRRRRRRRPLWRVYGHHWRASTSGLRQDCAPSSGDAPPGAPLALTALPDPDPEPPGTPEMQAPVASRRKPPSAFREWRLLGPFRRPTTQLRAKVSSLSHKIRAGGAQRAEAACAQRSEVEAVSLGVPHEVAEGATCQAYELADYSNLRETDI
T2 sequence (P35368 whole entry): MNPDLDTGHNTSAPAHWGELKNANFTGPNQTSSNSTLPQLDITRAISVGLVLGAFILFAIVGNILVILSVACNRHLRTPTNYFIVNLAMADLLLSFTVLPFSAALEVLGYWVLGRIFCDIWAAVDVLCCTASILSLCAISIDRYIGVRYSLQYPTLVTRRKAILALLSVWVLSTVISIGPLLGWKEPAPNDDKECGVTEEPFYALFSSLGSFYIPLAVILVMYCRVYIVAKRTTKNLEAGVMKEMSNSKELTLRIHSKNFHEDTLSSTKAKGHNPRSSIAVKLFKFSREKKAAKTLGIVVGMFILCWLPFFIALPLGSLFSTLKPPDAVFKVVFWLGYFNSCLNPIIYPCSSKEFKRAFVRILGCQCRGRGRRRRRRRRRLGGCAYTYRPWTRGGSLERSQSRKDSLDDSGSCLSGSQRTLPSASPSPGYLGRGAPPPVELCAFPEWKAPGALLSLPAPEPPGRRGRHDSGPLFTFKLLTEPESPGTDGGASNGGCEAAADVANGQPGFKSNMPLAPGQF

[6] = target: Serotonin 3 (5-HT3) receptor; assay: Compound was evaluated for 5-hydroxytryptamine 3 receptor binding; assay type: protein-complex assay
[7] = target: Serotonin 1 (5-HT1) receptor (Rattus norvegicus, UniProt P28564+P30940+P19327+P28565); assay: Compound was evaluated for 5-hydroxytryptamine 1 receptor binding; assay type: protein assay
[8] = target: Adrenergic receptor beta (Homo sapiens, UniProt P08588+P07550+P13945); assay: Compound was evaluated for Beta adrenergic receptor binding; assay type: protein assay
[9] = target: Serotonin 2 (5-HT2) receptor (Homo sapiens, UniProt P41595+P28223+P28335); assay: Compound was evaluated for 5-hydroxytryptamine 2 receptor binding; assay type: protein assay
[10] = target: T3, Adrenergic receptor alpha-2 (Homo sapiens, UniProt P08913+P18825+P18089); assay: Compound was evaluated for alpha-2 adrenergic receptor binding; assay type: protein assay
T3 sequence (P08913 whole entry): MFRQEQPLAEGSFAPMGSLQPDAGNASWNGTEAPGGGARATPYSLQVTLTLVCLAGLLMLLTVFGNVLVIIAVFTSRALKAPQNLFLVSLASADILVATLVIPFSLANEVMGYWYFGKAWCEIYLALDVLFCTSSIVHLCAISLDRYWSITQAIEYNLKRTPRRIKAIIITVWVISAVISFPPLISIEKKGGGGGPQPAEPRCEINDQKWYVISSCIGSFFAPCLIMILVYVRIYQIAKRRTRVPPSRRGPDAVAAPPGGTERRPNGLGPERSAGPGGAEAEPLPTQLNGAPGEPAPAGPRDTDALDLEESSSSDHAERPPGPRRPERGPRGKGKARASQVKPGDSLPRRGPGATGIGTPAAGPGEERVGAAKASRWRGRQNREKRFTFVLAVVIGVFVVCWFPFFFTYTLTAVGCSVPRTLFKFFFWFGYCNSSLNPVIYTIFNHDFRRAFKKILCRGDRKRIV
T3 sequence (P18825 whole entry): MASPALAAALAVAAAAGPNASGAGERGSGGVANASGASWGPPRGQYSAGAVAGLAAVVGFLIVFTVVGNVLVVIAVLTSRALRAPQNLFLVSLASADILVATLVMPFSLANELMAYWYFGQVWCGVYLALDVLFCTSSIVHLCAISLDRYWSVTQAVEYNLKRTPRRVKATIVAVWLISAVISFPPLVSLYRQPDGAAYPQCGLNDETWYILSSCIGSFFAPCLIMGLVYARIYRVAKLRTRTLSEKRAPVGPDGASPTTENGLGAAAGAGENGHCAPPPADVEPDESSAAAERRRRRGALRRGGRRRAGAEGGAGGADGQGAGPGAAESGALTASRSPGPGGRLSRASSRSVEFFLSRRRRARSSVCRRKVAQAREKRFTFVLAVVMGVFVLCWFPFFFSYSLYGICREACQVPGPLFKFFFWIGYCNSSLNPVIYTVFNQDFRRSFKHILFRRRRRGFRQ
T3 sequence (P18089 whole entry): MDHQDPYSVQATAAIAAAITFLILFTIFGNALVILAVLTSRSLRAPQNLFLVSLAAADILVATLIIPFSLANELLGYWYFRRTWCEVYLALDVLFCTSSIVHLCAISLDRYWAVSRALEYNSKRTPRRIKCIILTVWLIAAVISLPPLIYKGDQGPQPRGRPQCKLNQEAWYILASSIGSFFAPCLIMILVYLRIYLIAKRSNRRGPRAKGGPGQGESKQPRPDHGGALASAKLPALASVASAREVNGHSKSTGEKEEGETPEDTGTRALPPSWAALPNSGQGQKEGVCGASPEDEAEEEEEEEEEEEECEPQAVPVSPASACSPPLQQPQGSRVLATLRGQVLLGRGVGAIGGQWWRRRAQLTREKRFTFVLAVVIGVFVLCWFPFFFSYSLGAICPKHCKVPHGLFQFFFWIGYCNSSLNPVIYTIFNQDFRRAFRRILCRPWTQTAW

[11] = target: T1, 5-hydroxytryptamine receptor 4; assay: Compound was tested for agonist activity at the 5-hydroxytryptamine 4 receptor in the rat tunica muscularis mucosae (TMM) assay; assay type: functional, tissue-based, Muscularis mucosa

T1 sequence (Q62758 whole entry): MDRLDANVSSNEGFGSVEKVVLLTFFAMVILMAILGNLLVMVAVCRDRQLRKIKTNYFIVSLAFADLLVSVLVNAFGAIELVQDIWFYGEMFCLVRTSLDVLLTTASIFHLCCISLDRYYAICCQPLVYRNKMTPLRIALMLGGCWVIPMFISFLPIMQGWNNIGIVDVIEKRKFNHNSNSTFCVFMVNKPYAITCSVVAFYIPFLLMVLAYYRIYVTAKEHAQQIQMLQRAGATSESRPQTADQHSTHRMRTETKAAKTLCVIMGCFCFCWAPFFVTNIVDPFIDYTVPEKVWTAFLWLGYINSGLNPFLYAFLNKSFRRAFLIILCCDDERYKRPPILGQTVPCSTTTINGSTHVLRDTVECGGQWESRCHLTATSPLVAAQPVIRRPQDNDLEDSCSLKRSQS

Row | Structure (SMILES) | EC50 [1] | Ki [2] | Ki [3] | EC50 [4] | Ki [5] | Ki [6] | Ki [7] | Ki [8] | Ki [9] | Ki [10] | EC50 [11]
1 | COc1cc(N)c(Cl)cc1C(=O)N[C@@H]1C2CC3CN(C2)CC31 (some centres not stated) | Not Active | – | – | – | – | – | – | – | – | – | –
2 | COc1cc(N)c(Cl)cc1C(=O)NC[C@@H]1CCN2CCC[C@@H]12 | – | > 10000 nM | > 10000 nM | 66 nM | > 10000 nM | 152 nM | > 10000 nM | > 10000 nM | > 10000 nM | > 10000 nM | 23 nM
3 | COc1cc(N)c(Cl)cc1C(=O)NC[C@@H]1CCN2CCC[C@@]12C (racemic) | – | – | – | – | – | – | – | – | – | – | 449 nM
